Data reported in US20220034868A1, “CARDIOTOXICITY ASSESSMENT METHOD” (ZEON CORPORATION, priority 2018, published 2022).

Tested on: iCell Cardiomyocytes^2
Assay: Cardiotoxicity assessment: cell-secreted BNP before and after drug addition (Human BNP ELISA Kit), 1060R 96-well plate
Format: cell-based
Conditions: Example 1; 1060R 96-well plate (surface free energy 34 mN/m), fibronectin coated; final doxorubicin 10^-6 M to 10^-14 M; 16 hours at 37° C.; n=3; FIG. 1
Description: As a culture container a 96-well plate with 96 cylindrical wells each having a bottom area of 0.32 cm^2 was obtained by injection molding of ZEONOR® 1060R (ZEONOR is a registered trademark in Japan, other countries, or both) (ZEON Corporation, hydrogenated norbornene ring-opened polymer, hereinafter simply “1060R”) as an alicyclic structure-containing polymer. The culture container was sterilized with ethylene oxide gas (hereinafter, this culture container is referred to as “1060R 96-well plate”). The surface free energy at the inner bottom surface (cell-contacting surface, or culture surface) of each well of the 1060R 96-well plate was 34 mN/m. The surface free energy was measured using surface energy evaluation inks (Arcotest GmbH).
To each well of the […] 96-well plate was added 200 μL of 10 μg/mL human fibronectin (Corning Incorporated, product number: 356008) solution in sterile water and incubated at 37° C. for 2 hours to coat the inner bottom surface of each well with human fibronectin. Human fibronectin solution was removed from each well. […]
Supernatant samples before and after doxorubicin addition were measured for BNP level using Human BNP ELISA Kit (RayBiotech, product number: ELH-BNP).

For `COc1cccc2c1C(=O)c1c(O)c3c(c(O)c1C2=O)C[C@@](O)(C(=O)CO)C[C@@H]3O[C@H]1C[C@H](N)[C@H](O)[C@H](C)O1` [doxorubicin], the “cell-secreted BNP concentration difference before and after addition of doxorubicin” value was “BNP concentration difference increases with increasing doxorubicin concentration”.
